According to patent US8987220B2, “Production of reprogrammed cells with restored potential” (Nupotential, Inc., priority 2005, dated 2015):
“Also recorded” adds a separate entry of the source.

Assays:
primary rat hepatocytes = assay: ATRA and adipogenic induction cocktail on primary hepatocytes; assay type: cell-based
Method: Primary rat hepatocytes were grown in media treated with 50-200 nM ATRA. Following treatment, cells were cultured under the same comparative conditions as described above for the bovine somatic cells, except an adipogenic induction cocktail (as described in EXAMPLE 2) was added to the T-75 flasks.

3T3 L1 cells = assay: ATRA followed by osteogenic induction media; assay type: cell-based, murine
Method: 3T3 L1 cells were grown in media treated with 50-200 nM ATRA. Following ATRA treatment, cells were transferred to 6-well plates and exposed to osteogenic induction media containing DMEM, FBS, ascorbic acid 2-phosphate, dexamethasone, beta glycerophosphate, and vitamin D for 21 days.

bovine somatic cells = assay: ATRA followed by adipogenic induction cocktail
[1] = test system: bovine serial nuclear transfer donor somatic cells; assay: Relative methylated cytosine by reverse-phase HPLC after ATRA treatment; assay type: cell-based; conditions: 10-50 nM ATRA, cultured until confluent
Method: Bovine serial nuclear transfer donor somatic cells (a cell line that has never produced a successful live animal and which is characterized by low blastocyst development rates (<10%, P<0.001) and low pregnancy initiation rates (<1%, P<0.05)) were cultured in T-75 flasks until confluent in growth media (CON), or growth media treated with DMSO, or ATRA (DMSO vehicle); 10 nM, 50 nM, and 100 nM ATRA concentrations were used. Following […] treatment, the cells were collected and DNA from the cells was isolated. The DNA was then completely digested into single nucleotides for reverse-phase HPLC. Reverse-phase HPLC was performed as described by Cezar et al. to measure the relative levels of methylated cytosine residues.

Oct4, Sox2 and nanog = assay: RT-PCR for stem cell/pluripotency markers after ATRA; assay type: cell-based, bovine; conditions: after ATRA treatment, data not shown
Method: To determine whether differentiation potential was restored, bovine somatic cells were cultured in T-75 flasks until confluent in CON, DMSO, or ATRA media (same RA as in Example 1).

GNMT = GNMT gene expression by real-time RT-PCR (GNMT/GAPD ratio); assay type: cell-based, bovine
[2] = 50-200 nM ATRA then osteogenic induction 21 days

For CC1=C(/C=C/C(C)=C/C=C/C(C)=C/C(=O)O)C(C)(C)CCC1 [ATRA, all-trans retinoic acid], the “cell proliferation (confluency)” value (primary rat hepatocytes; 50-200 nM ATRA then adipogenic induction media, day 4) was “proliferated significantly”, the cell morphology (primary rat hepatocytes; 50-200 nM ATRA, pronounced within 48 hours of induction media) was “Morphological changes” and the “alizarin staining for calcium phosphate mineralization” value (3T3 L1 cells; [2]) was “positive staining; also recorded: calcium phosphate mineralization”. For the same molecule, the “alkaline phosphatase staining for osteoblast-like cells” value (3T3 L1 cells; [2]) was “positive staining”, the “osteocalcin and cbfa1 expression (osteoblast-specific markers)” value (3T3 L1 cells; RT-PCR after ATRA and osteogenic induction) was “induction” and the “oil red-O staining (lipid)” value (bovine somatic cells; ATRA then adipogenic induction 11-12 days) was “positive”. The “PPARγ gene expression (adipocyte differentiation marker)” value (bovine somatic cells; PCR after induction, data not shown) was “induction”, the “cell morphology during exposure to ATRA” value (bovine somatic cells; structures similar to embryoid bodies) was “significant morphological changes” and the “reduction in methylated cytosine compared to CON” value [1] was 8-10%. The “expression of Oct4, Sox2 and nanog” value (Oct4, Sox2 and nanog) was “upregulation and strong expression”, the “GNMT gene expression (ratio of GNMT to GAPD)” value (GNMT; ATRA-treated growth media, real-time RT-PCR) was “upregulation” and the “response of GNMT transcription to ATRA” value (GNMT; prior experiments) was “dose response”.
